Residues, ends and D or L forms follow the SMILES beside them. *: point of attachment. Cbz = O=C(OCc1ccccc1)*
Columns and labels:
clinical PCLS tissues = test: FPS/PLS response (CES, nCounter) in organotypic ex vivo culture of clinical PCLS tissues; format: cell-based, human; conditions: for FPS response rate (number of responding patients): count of patients with CES-based FPS response; for FPS response rate (number of responding patients) / FPS response rate: PCLS cultured 24 h with agent vs vehicle; for PLS response rate (number of responding patients): count of patients with PLS response; for PLS response rate (number of responding patients) / PLS response rate: ex vivo PCLS culture; for modulation of SLC7A1 (CAT1): drug-level FPS gene modulation in ex vivo PCLS culture; for FPS response rate: percent of patients tested with CES-based FPS response; for PLS response rate: percent of patients tested with PLS response
From the text: (§1) Evaluation of galunisertib, erlotinib, AM095, bortezomib, pioglitazone, metformin, epigallocatechin gallate (EGCG), I-BET 151, JQ1, captopril, nizatidine (Selleck Chemicals); MG-132 (Sigma-Aldrich); cenicriviroc (AbbVie) (Table 2) were done in organotypic ex vivo culture of precision-cut liver slice (PCLS) tissues in the FPS validation set 2 as previously described. Patient-derived liver cell spheroids were generated from a cirrhosis patient and high-risk FPS was induced by free fatty acids, and treated with EGCG, bortezomib, cenicriviroc, and/or bezafibrate for 48 h. Mycoplasma-free human hepatic myofibroblast cell lines, LX-2 and TWNT-4, were cultured with MG-132 (20 μM) or DMSO control for 12 and 24 h in triplicates.
(§2) Total RNA was isolated from fixed tissue sections by using High Pure RNA Paraffin kit (Roche), and assessed for quality by qRT-PCR of RPL13A. Total RNA from the PCLS tissues was isolated using RNeasy kit (Qiagen). RNA samples (100-200 ng) were subjected to the PLS/FPS assay implemented in the nCounter platform (NanoString), and transcriptome profiling of the CENTAUR trial samples was performed by RNA-Seq (TrueSeq RNA Access, Illumina). Expression of BCL2, COL1A1, and ACTA2 genes was measured by qRT-PCR (Table 3). Serum protein profiling was performed by using xMAP assay (Luminex).
Total RNA was isolated from three to five 10-μm-thick formalin-fixed paraffin-embedded (FFPE) tissue sections from the PLS/FPS derivation/validation cohorts by using High Pure RNA Paraffin kit (Roche), and lack of severe RNA fragmentation was confirmed by qRT-PCR of a housekeeping gene RPL13A as previously described.^1 From freshly harvested myofibroblast cell lines, LX-2 and TWNT-4, and clinical precision-cut-liver slice (PCLS) tissues stored in RNAlater (ThermoFisher) at −80?C, total RNA was isolated using RNeasy kit (Qiagen), and the RNA integrity number (RIN)>8 by Bioanalyzer (Agilent) was regarded as sufficient quality for expression analysis. Total RNA samples (100 to 500 ng) were subjected to the gene signature assays implemented in the digital transcript counting technology (NanoString) according to manufacturer's instruction. Poor quality profiles were detected based on maximum signal intensity from positive control probes <3,000U. Raw transcript count data were log-transformed (base 2) and scaled by geometric mean of control probe data by using NanoString normalizer module implemented in GenePattern data analysis suite (www.broadinstitute.org/genepattern). Genome-wide transcriptome profiling of the CENTAUR trial samples was performed using 100 to 200 ng total RNA by RNA-Seq using exome-enriched library preparation according to the manufacturer's protocol (TrueSeq, Illumina). Raw sequencing reads were mapped onto the reference human genome (hg19) by using the STAR aligner (ver. 2.6.1b) followed by the read counting on genes via featureCounts in the Subread package (ver. 1.6.1). The raw read counts were further normalized by using the Relative Log Expression (RLE) implemented in the DESeq2 package (ver. 1.22.2). Expression of COL1A1, and ACTA2, and BCL2 genes was measured by qRT-PCR (BioRad) using ddCt method with RPL13A as housekeeping gene, as previously described (refer Table 3 for the primer sequences). Gene expression profiles of the PLS/FPS-inducible cell culture model (cell-culture-derived PLS [cPLS] system) treated with erlotinib, pioglitazone, captopril, and resveratrol were obtained from our previous study (GSE81801).

[1] = system: human precision-cut liver slice (PCLS); test: MG-132 effect on COL1A1, ACTA2 and BCL2 expression (qRT-PCR) in ex vivo PCLS culture; format: cell-based; conditions: PCLS from two patients, HCV (F1) and NAFLD (F2); vs DMSO
From the text: as §1
as §2, with “(Luminex). […]” for “(Luminex).”

clinical PCLS tissue = test: Immunostaining of cleaved caspase-3, alpha-SMA and GFAP in PCLS tissues cultured with MG-132 or DMSO; format: cell-based, human; conditions: PCLS tissues cultured with MG-132 vs DMSO, five patients
Protocol: FIG. 4A depicts a co-expression gene network defined in the FPS derivation set 1 to 4. Hub genes are indicated with larger nodes. Synthesized association with time to fibrosis progression (Fisher's inverse chi-square statistic) in the FPS derivation set 1 and 2 is shown by red (poor outcome) to blue (good outcome) color scale. […] All assays were performed in triplicates. Green dotted line indicates expression level of the DMSO-treated control. […] Paired tissues from the same patient are connected with a line. Wilcoxon signed-rank test p-value is shown. […] Scale bars indicate 50 μm and 25 μm for upper and lower panels, respectively. […] Scale bars indicate 100 μm. […] NES: normalized enrichment score. FDR: false discovery rate.
Immunostaining was performed for caspase-3 (Asp175) (5A1E, Cell Signaling), alpha-SMA (Abcam), Desmin (DAKO), GFAP (abcam), and Ki-67 (Abcam). TUNEL staining was performed using ApopTag Peroxidase In Situ Apoptosis Detection Kit (EMD Millipore).

LX-2 = test: MG-132 effect on COL1A1, ACTA2 and BCL2 expression (qRT-PCR) in LX-2; format: cell-based, human; conditions: MG-132 20 μM vs DMSO, 12 and 24 h
From the text: as §1
as §2, with “(Luminex). […]” for “(Luminex).”

[2] = system: PCLS tissue from a chronic hepatitis C patient with F2 fibrosis; test: Validation of combination therapies by liver fibrosis gene panel in ex vivo culture of a clinical fibrotic PCLS tissue; format: cell-based, human; conditions: agent added to EGCG
From the text: as §1
To test this idea, synergistic effect of the agents to shift the FPS from high- to low-risk pattern was computationally inferred, i.e., suppression of the high-risk genes and/or induction of the low-risk genes (see materials and methods).

TWNT-4 = test: MG-132 effect on COL1A1, ACTA2 and BCL2 expression (qRT-PCR) in TWNT-4; format: cell-based, human; conditions: MG-132 20 μM vs DMSO, 12 and 24 h
From the text: as §1
as §2, with “(Luminex). […]” for “(Luminex).”

[3] = system: biliary fibrosis induced by bile duct ligation; conditions: bile duct ligation in mice; cited from earlier work

Cc1cccc(-c2nn3c(c2-c2ccnc4ccc(C(N)=O)cc24)CCC3)n1 [Galunisertib]
FPS response rate (number of responding patients) (clinical PCLS tissues): 6 | PLS response rate (number of responding patients) (clinical PCLS tissues): 7 | modulation of SLC7A1 (CAT1) (clinical PCLS tissues): similarly striking suppression

Cc1noc(-c2ccc(-c3ccc(CC(=O)O)cc3)cc2)c1NC(=O)O[C@H](C)c1ccccc1 [AM095]
FPS response rate (number of responding patients) (clinical PCLS tissues): 11 | PLS response rate (number of responding patients) (clinical PCLS tissues): 8 | modulation of SLC7A1 (CAT1) (clinical PCLS tissues): similarly striking suppression | FPS response rate (clinical PCLS tissues): 38% | PLS response rate (clinical PCLS tissues): 27.59%

C#Cc1cccc(Nc2ncnc3cc(OCCOC)c(OCCOC)cc23)c1 [Erlotinib]
FPS response rate (number of responding patients) (clinical PCLS tissues): 11 | PLS response rate (number of responding patients) (clinical PCLS tissues): 13

CCc1ccc(CCOc2ccc(CC3SC(=O)NC3=O)cc2)nc1 (stereo not shown) [Pioglitazone]
FPS response rate (number of responding patients) (clinical PCLS tissues): 6 | PLS response rate (number of responding patients) (clinical PCLS tissues): 7

CNC(=C[N+](=O)[O-])NCCSCc1csc(CN(C)C)n1 [Nizatidine]
FPS response rate (number of responding patients) (clinical PCLS tissues): 3 | PLS response rate (number of responding patients) (clinical PCLS tissues): 3

CC(C)C[C@@H](C=O)NC(=O)[C@H](CC(C)C)NC(=O)[C@H](CC(C)C)NC(=O)OCc1ccccc1 [MG132] (Cbz-Leu-Leu-Leu-aldehyde)
modulation of high-risk FPS genes (gene set enrichment analysis) (clinical PCLS tissues; clinical fibrotic PCLS tissues, ex vivo MG-132, FDR≤0.008): significantly suppressed | FPS response rate (number of responding patients) (clinical PCLS tissues): 6 | PLS response rate (number of responding patients) (clinical PCLS tissues): 3 | expression of COL1A1, ACTA2 and BCL2 [1]: reduced expression | cleaved-caspase-3-positive cells (apoptosis induction) (clinical PCLS tissue): increased | expression of COL1A1, ACTA2 and BCL2 (LX-2): suppression | expression of genes encoding extracellular matrix proteins (COL1A1, HAS2) and fibrogenic drivers (PDGFRB, TGFB1, NOTCH1, LPAR1) [2]: substantially reduced expression | expression of COL1A1, ACTA2 and BCL2 (TWNT-4): suppression | myofibroblast activation and biliary fibrosis [3]: reduced myofibroblast activation and inhibit biliary fibrosis

O=C(O[C@@H]1Cc2c(O)cc(O)cc2O[C@@H]1c1cc(O)c(O)c(O)c1)c1cc(O)c(O)c(O)c1 [Epigallocatechin gallate]
FPS response rate (number of responding patients) (clinical PCLS tissues): 7 | PLS response rate (number of responding patients) (clinical PCLS tissues): 9 | FPS response rate (clinical PCLS tissues): 64% | PLS response rate (clinical PCLS tissues): 81.82%

CN(C)C(=N)N=C(N)N [Metformin]
FPS response rate (number of responding patients) (clinical PCLS tissues): 7 | PLS response rate (number of responding patients) (clinical PCLS tissues): 6 | modulation of SLC7A1 (CAT1) (clinical PCLS tissues): similarly striking suppression

CC(C)C[C@H](NC(=O)[C@H](Cc1ccccc1)NC(=O)c1cnccn1)B(O)O [Bortezomib]
FPS response rate (number of responding patients) (clinical PCLS tissues): 4 | PLS response rate (number of responding patients) (clinical PCLS tissues): 5 | expression of genes encoding extracellular matrix proteins (COL1A1, HAS2) and fibrogenic drivers (PDGFRB, TGFB1, NOTCH1, LPAR1) [2]: substantially reduced expression | myofibroblast activation and biliary fibrosis [3]: reduced myofibroblast activation and inhibit biliary fibrosis

Reference: patent US20260185169A1, “MOLECULAR SIGNATURES TO PREDICT LONG-TERM LIVER FIBROSIS PROGRESSION” (THE BOARD OF REGENTS OF THE UNIVERSITY OF TEXAS SYSTEM, priority 2022, published 2026)
